Legend:
[1] = SIF buffer solubility panel (FaSSIF, FeSSIF, FaSSGF); assay type: physicochemical; conditions: 37° C., up to 24 h (timepoints t=0, 1 h, 3 h, 6 h, 24 h)
[2] = Solubility determinations in SIF buffers FaSSIF, FeSSIF, FaSSGF (Example 8, Experiment 5)
Description: The temperature was maintained at 37° C. for 24 h. […] The suspensions were sampled at the relevant time points and centrifuged. The centrifuged pellets, obtained at the time points were analysed by XRPD as a wet pellet and dried, for evidence of form change.
The temperature was maintained at 37° C. for 24 h.
The suspension was sampled at the relevant time points and centrifuged. […] The centrifuged pellets, obtained at the time points were analyzed by XRPD as a wet pellet and dried, for evidence of form change.

[3] = Equilibrium humidity evaluation 75% RH/40° C., 10 days (Example 8, Experiment 6); assay type: physicochemical
Description: The experimental procedure that accompany this experiment is provided in Section G.ii.
All forms were maintained under constant equilibrium humidity (75% RH). XRPD, DSC, TGA, PLM and ^1H NMR analyses were performed on the absorbents at t=5 d and t=10 d, to confirm their physical fates and to determine the extent of residual solvent exchange or sequestration.
100 mg portions of Tabernanthalog salts ([…]) were placed in the relevant open vials. The powders were finely divided and distributed evenly over the base of the vial, such that equal material coverage across the panel was observed. These samples were then maintained 40° C. under 75% RH. The samples were sub-sampled at intervals of 5 and 10 days and analyzed by ^1H NMR, HPLC, XRPD, DSC, TGA and PLM, for evidence of phase change or chemical degradation.

[4] = Dynamic vapour sorption (DVS) of selected salts (Example 8); assay type: physicochemical; conditions: 0 to 90 to 0% RH, 25° C., dm/dt 0.002%/min
Description: DVS: The moisture sorption properties of the feed API were analyzed by DVS Intrinsic instrument (Surface Measurement System). Approximately 20-50 mg of API was weighed on an aluminum pan and loaded into the instrument equilibrated at 25° C. The sample was allowed to equilibrate under dry atmosphere (0% relative humidity) for 60 minutes before increasing the humidity from 0% to 30% at 5% step increment and from 30% to 90% at 10% step increment. A desorption cycle was also applied from 90% to 30% (10% step) and from 30% to 0% (5% decrement). A rate of change in mass per time unit (dm/dt) of 0.002%/min was set as the equilibrium parameter. Kinetic and isotherm graphs were calculated.

[5] = DVS 0 to 90 to 0% RH (mass equilibrated); assay type: physicochemical
[6] = Thermal study: glass transition temperature (Tg) of amorphous monofumarate and sorbate; assay type: physicochemical
Description: Each salt was analysed by DSC and TGA to determine the Tg of the amorphous form. Amorphous forms were generated by thermocycling the salt past the melt temperature, cooling the sample, and once cooled the samples were reheated. Open pan and sealed pan DSC were utilised, open pan DSC were heated past the melt event, cooled, and left to stand under ambient conditions overnight.
Sealed pans were immediately cycled with no time left to stand.
TGA (open pan) samples were analysed by thermocycle, with no time for the sample to stand under ambient conditions.
The amorphous forms were generated in these studies and characterised with their Tg being measured.
A hot stage microscope heating block was used to generate the amorphous phase in-situ, to allow analysis by XRPD. A silicon XRPD sample plate was loaded with the appropriate salt. The plate was heated past the melt event, removed from the hot stage microscope block and cooled to ambient in air and analysed by XRPD to ensure that the amorphous form was generated. The amorphous material was then analysed by ^1H NMR and LC-MS to ensure there was no change in chemical composition.
Two DSC pans were charge with the appropriate salt (Tabernanthalog·Sorbate, A1270−076-A1 and Tabernanthalog·Monofumarate, Tabernanthalog·Monofumarate), the first DSC pan was not sealed (open pan DSC), the second was sealed (hermetic sealed pan DSC). The open pan DSC was cycled from 20° C. to just after the melt event for each, cooled to −20° C. and left to stand under ambient conditions over night. The open pan DSC was then heated to just before the thermal degradation event (Tabernanthalog·Sorbate ca. 160° C., Tabernanthalog·Monofumarate ca. 210° C.) The hermetic sealed DSC was heated from 20° C. to just after the melt event, cooled to −20° C. then headed to just before the same degradation event.
Two TGA crucibles were charged with the appropriate salt (Tabemanthalog·Sorbate, A1270-076-A1, Tabernanthalog·Monofumarate, Tabernanthalog·Monofumarate), both were thermocycled from 20° C. to past the melt event and then cooled to −20° C., each pan was then immediately heated to just before the degradation event to measure the Tg event.

[7] = Amorphous study (freeze drying, evaporation, spray drying, bead milling) of monofumarate and sorbate; assay type: physicochemical; conditions: 50 mg
From the text: The purpose of this study was to generate amorphous material to be characterized and used in water activity studies. To achieve this, the two salts were exposed to a variety of techniques in attempts to generate the amorphous forms, including freeze drying, evaporation, vacuum desiccation and cryodesiccation spray drying. These techniques were not successful for the two salts Tabernanthalog·Monofumarate and Tabernanthalog·Sorbate.
Bead milling was attempted to generate the amorphous form of Tabernanthalog·Sorbate (Tabernanthalog·Sorbate, Form A). The salt underwent neat milling and separately with the addition of tetradecafluorohexane (TDFH). The following experiments were performed: Experiment 6-Sample A1 (30 Hz, 2 h), Experiment 6-Sample A2 (30 Hz, 5.5 h) and Experiment 6-Sample A3 (30 Hz 1 h, TDFH), the products from each experiment was analysed by XRPD to determine the extent of crystallinity (FIG. 812). None of the experiments provided amorphous material.
Each salt was charged to a 7 ml vial (50 mg, 1.0 wt). To the vial containing Tabernanthalog·Monofumarate (Tabernanthalog·Monofumarate), was charged water (10.0 vol), to fully dissolve the sample. Tabernanthalog·Sorbate (A1270-076-A1) was taken-up in ethanol/water (15% v/v, 10 vol), a further charge of water (1.0 ml), was added to ensure that the sample dissolved.
Vials containing the salt solutions were placed on the freeze drier apparatus overnight, and the cryo-desiccated products were recovered the following morning and analysed by XRPD each product remained crystalline.
Tabernanthalog·Monofumarate (A1272−082-A2, 51.1 mg, 1.0 wt) was charged to a 7 ml scintillation vial followed by THE (2 ml, […]), the suspension was heated to 50° C., until full dissolution was observed. The vial was stoppered by foil and a pin hole was pierced in the top. The vial was located under a steady N2 stream.
Tabernanthalog·Sorbate (A1270−076-A1, 99.4 mg, 1.0 wt) was charged to a 7 ml scintillation vial, followed by hexafluoroisopropanol (HFIPA, 5.0 vol, 0.5 ml), after which, the sample fully dissolved. The cap was replaced by foil and pierced on the top. Solvent was allowed to evaporate, to afford a dry, brown solid that was analysed by XRPD yielding crystalline pattern #7. Sample were dried under N2 stream for 5 h and reanalysed by XRPD, remaining as pattern #7
Tabernanthalog·Sorbate (A1270−076-A1, 50.0 mg, 1.0 wt) was charged to a 7 ml scintillation vial followed by hexafluoroisopropanol (HFIPA, 0.5 ml, 10 vol), to yield a clear solution. The solution was concentrated to dryness, by rotary evaporation, yielding an oil, that was allowed to stand undisturbed overnight.
Tabernanthalog·Sorbate (A1270−076-A1, 50.0 mg, 1.0 wt) was charged to a 7 ml scintillation vial, followed by methanol (300 μl, 6.0 vol). The solution was clarified by filtration into a 7 ml scintillation vial, containing diethyl ether (1.0 ml, 20.0 vol).
Tabernanthalog·Sorbate (A1270−076-A1, 102 mg, 1 wt) was charged to a 7.0 ml scintillation vial followed by methanol (1.9 ml, 19.0 vol). The solution was loaded into the spray drier apparatus.
The procedure yielded a brown powder (30 mg, 30% th.).
Tabernanthalog·Sorbate (A1270-076-A1, Form A) was charged to a 1.5 ml steel milling-vessel with a single 5 mm ball bearing. The sample was milled for 5.5 h at 30 Hz and yielded an off-white powder, that was analysed by XRPD, no change in crystallinity.

[8] = each timepoint up to 24 h, 37° C.
[9] = Amorphisation activity: Crash cool
[10] = Amorphisation activity: Freeze dry

## COc1ccc2c3c([nH]c2c1)CCN(C)CC3.O=C(O)c1ccccc1 [tabernanthalog benzoate salt]
[1]
  solubility in FaSSGF: all dissolved except the tabernanthalog benzoate salt
  solubility in FaSSIF: all dissolved except the tabernanthalog benzoate salt
  solubility in FeSSIF: all dissolved except the tabernanthalog benzoate salt
[2]; FaSSIF, FeSSIF, FaSSGF, 37° C., 24 h
  behaviour at 30 mg/ml in SIF buffers: precipitated in all three SIF buffers
[2]; [8]
  stability of the suspended phase in FaSSIF (XRPD of pellet): stable and did not disproportionate in FaSSIF
  stability of the suspended phase in FeSSIF (XRPD of pellet): stable and did not disproportionate in FeSSIF
[2]; over the time points up to 24 h
  decrease in chemical purity of wet pellets in FaSSIF: ca. 1.22 % area
[2]; up to 24 h, 37° C.
  fate of the suspended phase in FaSSGF (XRPD, 1H NMR): consistent with benzoic acid
[3]; 75% RH/40° C., after 10 days
  change in chemical purity (trended HPLC): did not decrease significantly
[3]; 75% RH/40° C., t=5 d and t=10 d
  water uptake / hydrate formation (TGA, DSC): no significant water uptake
[3]; 75% RH/40° C., t=5 days and t=10 days
  powder diffraction pattern versus input (form stability): consistent with the input
[3]; Benzoate salt, input before humidity exposure
  Tabernanthalog RRT = 1.00 (trended HPLC data, chemical purity): 98.56
[4]
  DVS sorption/desorption isotherm: slightly hygroscopic

## COc1ccc2c3c([nH]c2c1)CCN(C)CC3 [Pattern #6a (Form A)]
[1]
  solubility in FaSSGF: soluble
  solubility in FaSSIF: soluble
  solubility in FeSSIF: soluble
[5]; desorption, 0.0% RH
  DVS 0 to 90 to 0% RH (dm/dt <0.002%): 0.0381%
[5]; desorption, 5.0% RH
  DVS 0 to 90 to 0% RH (dm/dt <0.002%): 0.1179%
[5]; desorption, 10.0% RH
  DVS 0 to 90 to 0% RH (dm/dt <0.002%): 0.1551%
[5]; desorption, 15.0% RH
  DVS 0 to 90 to 0% RH (dm/dt <0.002%): 0.1857%
[5]; desorption, 20.0% RH
  DVS 0 to 90 to 0% RH (dm/dt <0.002%): 0.2126%
[5]; desorption, 25.0% RH
  DVS 0 to 90 to 0% RH (dm/dt <0.002%): 0.2387%
[5]; desorption, 30.0% RH
  DVS 0 to 90 to 0% RH (dm/dt <0.002%): 0.2656%
[5]; desorption, 40.0% RH
  DVS 0 to 90 to 0% RH (dm/dt <0.002%): 0.3210%
[5]; desorption, 50.0% RH
  DVS 0 to 90 to 0% RH (dm/dt <0.002%): 0.3797%
[5]; desorption, 60.0% RH
  DVS 0 to 90 to 0% RH (dm/dt <0.002%): 0.4515%
[5]; desorption, 70.0% RH
  DVS 0 to 90 to 0% RH (dm/dt <0.002%): 0.5442%
[5]; desorption, 80.0% RH
  DVS 0 to 90 to 0% RH (dm/dt <0.002%): 0.6827%
[5]; desorption, 90.0% RH
  DVS 0 to 90 to 0% RH (dm/dt <0.002%): 0.9766%
[5]; sorption, 0.0% RH
  DVS 0 to 90 to 0% RH (dm/dt <0.002%): 0.0004%
[5]; sorption, 5.0% RH
  DVS 0 to 90 to 0% RH (dm/dt <0.002%): 0.0627%
[5]; sorption, 10.0% RH
  DVS 0 to 90 to 0% RH (dm/dt <0.002%): 0.0957%
[5]; sorption, 15.0% RH
  DVS 0 to 90 to 0% RH (dm/dt <0.002%): 0.1397%
[5]; sorption, 20.0% RH
  DVS 0 to 90 to 0% RH (dm/dt <0.002%): 0.1778%
[5]; sorption, 25.0% RH
  DVS 0 to 90 to 0% RH (dm/dt <0.002%): 0.2093%
[5]; sorption, 30.0% RH
  DVS 0 to 90 to 0% RH (dm/dt <0.002%): 0.2401%
[5]; sorption, 40.0% RH
  DVS 0 to 90 to 0% RH (dm/dt <0.002%): 0.3145%
[5]; sorption, 50.0% RH
  DVS 0 to 90 to 0% RH (dm/dt <0.002%): 0.4051%
[5]; sorption, 70.0% RH
  DVS 0 to 90 to 0% RH (dm/dt <0.002%): 0.5451%
[5]; sorption, 80.0% RH
  DVS 0 to 90 to 0% RH (dm/dt <0.002%): 0.6660%
[5]; sorption, 90.0% RH
  DVS 0 to 90 to 0% RH (dm/dt <0.002%): 0.9766%

## COc1ccc2c3c([nH]c2c1)CCN(C)CC3.O=C(O)/C=C/C(=O)O [Tabernanthalog•Monofumarate]
[6]; Hot plate heat up, sorbate 20 to 170 ° C., monofumarate 20 to 210 ° C.
  Outcome: Amorphous
[6]; Hot stage plate heat up, sorbate 20 to 170 ° C., monofumarate 20 to 210 ° C.
  Outcome: Almost Amorphous
[6]; Open Pan DSC, sorbate 20 to 165 to −20, O/N 20 to 230 ° C., monofumarate 20 to 210 to −20, O/N 20 to 210 ° C.
  Outcome: Amorphous
[6]; Sealed DSC, sorbate 20 to 165 to −20 to 230 ° C., monofumarate 20 to 210 to −20 to 210 ° C.
  Outcome: Amorphous
[6]; TGA, sorbate 20 to 165 to −20 to 230 ° C., monofumarate 20 to 210 to −20 to 210 ° C.
  Outcome: Amorphous
[6]; amorphous form generated in situ, sealed DSC thermocycle (Sample B1)
  Glass temperature (Tgs): 63 °C
[7]; [9]
  Form by XRPD: Pattern #3
  Outcome: Crystalline
[7]; [10]
  Form by XRPD: Pattern #1
  Outcome: Crystalline
[7]; Amorphisation activity: THF/N2
  Form by XRPD: Pattern #11
  Outcome: Crystalline
